Test results published in patent publication US8541461B2 (Astex Therapeutics Limited, priority 2005, dated 2013).

Tests used:
[1] = tested on: OVCAR-3 tumour cells; conditions: concentrations of 50 and 100 microM; cited from earlier work
[2] = tested on: PKG; conditions: cited from earlier work
[3] = tested on: PKC; conditions: cited from earlier work
[4] = tested on: Acute Promyelocytic Leukemia (APL) patients; conditions: cited from earlier work
[5] = target: T1, PKA catalytic domain (Homo sapiens, UniProt P17612); test: Measurement of PKA kinase inhibitory activity (IC50); assay type: biochemical; conditions: 1 nM enzyme, 40 μM ATP/γ33P-ATP, 5 μM substrate; read-out: PKA IC50
T1 construct: PKA catalytic domain from Upstate Biotechnology (#14-440); purchased Upstate Biotechnology 14-440
Protocol: A final concentration of 1 nM enzyme is used in a buffer that includes 20 mM MOPS pH 7.2, 40 μM ATP/γ^33P-ATP and 5 μM substrate. […] The reaction is allowed to proceed for 20 minutes before addition of excess orthophosphoric acid to quench activity. Unincorporated γ^33P-ATP is then separated from phosphorylated proteins on a Millipore MAPH filter plate. The plates are washed, scintillant is added and the plates are then subjected to counting on a Packard Topcount.

[6] = target: T2, PKB-PIF fusion protein (protein kinase B) (Homo sapiens, UniProt P31751); test: Measurement of PKB kinase inhibitory activity (IC50); assay type: biochemical; conditions: 0.6 nM enzyme, 30 μM ATP/γ33P-ATP, 25 μM AKTide-2T substrate; read-out: PKB IC50
T2 construct: PIF (fusion partner); made in house
Protocol: The reaction is allowed to proceed for 20 minutes before addition of excess orthophosphoric acid to quench activity. The reaction mixture is transferred to a phosphocellulose filter plate where the peptide binds and the unused ATP is washed away. After washing, scintillant is added and the incorporated activity measured by scintillation counting.

[7] = antitumour agent; cited from earlier work
[8] = doses 10 times more than were needed for antitumour activity; cited from earlier work
[9] = clinical studies; cited from earlier work
[10] = tested on: P-glycoprotein-overexpressing subline of leukemic cell line CCRF-CEM; conditions: read-out: IC50 against P-glycoprotein-overexpressing subline; cited from earlier work

T2 sequence (P31751 with tags, fused parts or gaps limits assumed): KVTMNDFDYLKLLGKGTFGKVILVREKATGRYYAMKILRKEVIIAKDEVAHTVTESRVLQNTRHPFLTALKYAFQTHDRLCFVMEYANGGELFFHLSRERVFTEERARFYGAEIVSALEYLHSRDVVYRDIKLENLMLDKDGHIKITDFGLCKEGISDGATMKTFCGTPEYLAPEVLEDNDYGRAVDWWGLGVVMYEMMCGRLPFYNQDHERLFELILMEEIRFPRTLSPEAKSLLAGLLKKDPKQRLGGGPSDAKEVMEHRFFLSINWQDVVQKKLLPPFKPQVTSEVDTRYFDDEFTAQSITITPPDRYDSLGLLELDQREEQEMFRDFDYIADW

| IC50 [5] [nM] | IC50 [6] [nM] | Compound | further results |
| --- | --- | --- | --- |
| < 1000 | < 1000 | CNCC(c1ccc(Oc2cnccn2)cc1)c1ccc(-c2cn[nH]c2)cc1 (stereo not shown) [Example 47, Methyl-{2-[4-(pyrazin-2-yloxy)-phenyl]-2-[4-(1H-pyrazol-4-yl)-phenyl]-ethyl}-amine] | – |
| < 1000 | < 5000 | CNCC(c1ccc(Oc2ccccc2)cc1)c1ccc(-c2cn[nH]c2)cc1 (stereo not shown) [Example 45, Methyl-{2-(4-phenoxy-phenyl)-2-[4-(1H-pyrazol-4-yl)-phenyl]-ethyl}-amine] | – |
| < 1000 | < 1000 | CNCC(c1ccc(-c2cn[nH]c2)cc1)c1cccc(Cl)c1 (stereo not shown) [Example 66, {2-(3-Chloro-phenyl)-2-[4-(1H-pyrazol-4-yl)-phenyl]-ethyl}-methyl-amine] | – |
| < 1000 | < 1000 | Clc1ccc(C2(c3ccc(-c4cn[nH]c4)cc3)CCNCC2)cc1Cl [Example 85, 4-(3,4-Dichloro-phenyl)-4-[4-(1H-pyrazol-4-yl)-phenyl]-piperidine] | – |
| < 1000 | < 1000 | OCCNCC(c1ccc(Cl)cc1)c1ccc(-c2cn[nH]c2)cc1 (stereo not shown) [Example 73, 2-{2-(4-Chloro-phenyl)-2-[4-(1H-pyrazol-4-yl)-phenyl]-ethylamino}-ethanol] | – |
| < 1000 | < 1000 | CNCC(C)(c1ccc(Cl)cc1)c1ccc(-c2cn[nH]c2)cc1 (stereo not shown) [Example 82, {2-(4-Chloro-phenyl)-2-[4-(1H-pyrazol-4-yl)-phenyl]-propyl}-methyl-amine] | – |
| < 1000 | < 1000 | CNCCC(Oc1cccc(Cl)c1)c1ccc(-c2cn[nH]c2)cc1 (stereo not shown) [Example 59, {3-(3-Chloro-phenoxy)-3-[4-(1H-pyrazol-4-yl)-phenyl]-propyl}-methyl-amine] | – |
| < 1000 | < 1000 | NCC(O)(c1ccc(Cl)cc1)c1ccc(-c2cn[nH]c2)cc1 (stereo not shown) [Example 84, 2-Amino-1-(4-chloro-phenyl)-1-[4-(1H-pyrazol-4-yl)-phenyl]-ethanol] | – |
| < 1000 | < 1000 | Cc1n[nH]cc1-c1ccc(C2(c3ccc(Cl)cc3)CCNCC2)cc1 [Example 78, 4-(4-Chloro-phenyl)-4-[4-(3-methyl-1H-pyrazol-4-yl)-phenyl]-piperidine] | – |
| < 1000 | < 1000 | COc1ccc(C2(c3ccc(-c4cn[nH]c4)cc3)CCNCC2)cc1Cl [Example 86, 4-(3-Chloro-4-methoxy-phenyl)-4-[4-(1H-pyrazol-4-yl)-phenyl]-piperidine] | – |
| < 1000 | < 1000 | CNCCC(c1ccc(-c2cn[nH]c2)cc1)c1ccc2ccccc2c1 (stereo not shown) [Example 52, Methyl-{3-naphthalen-2-yl-3-[4-(1H-pyrazol-4-yl)-phenyl]-propyl}-amine] | – |
| < 1000 | < 1000 | Clc1ccc(C(Cn2ccnc2)c2ccc(-c3cn[nH]c3)cc2)cc1 (stereo not shown) [Example 44, 4-{4-[1-(4-Chloro-phenyl)-2-imidazol-1-yl-ethyl]-phenyl}-1H-pyrazole] | – |
| < 1000 | < 1000 | NCCOC(c1ccc(Cl)cc1)c1ccc(-c2cn[nH]c2)cc1 (stereo not shown) [Example 49, 2-{(4-Chloro-phenyl)-[4-(1H-pyrazol-4-yl)-phenyl]-methoxy}-ethylamine] | – |

Second part, the compound before the results:

| Compound | IC50 [5] [nM] | IC50 [6] [nM] | further results |
| --- | --- | --- | --- |
| O=S(=O)(NCCNCC=C(c1ccccc1)c1ccccc1)c1cccc2cnccc12 [NL-71-101] | – | – | apoptosis in OVCAR-3 tumour cells, in which PKB is amplified [1]: induced apoptosis; IC50 [2]: 36 µM; IC50 [3]: 104 µM |
| CC1=C(/C=C/C(C)=C/C=C/C(C)=C/C(=O)O)C(C)(C)CCC1 [Tretinoin, all-trans retinoic acid] | – | – | remissions in APL patients [4]: 64-100% |
| calicheamicin | – | – | potency relative to adriamycin [7]: over 1,000 times |
| Cc1n[nH]c(C)c1-c1cccc(CC(N)c2ccccc2)c1 (stereo not shown) [Example 5, 2-[3-(3,5-Dimethyl-1H-pyrazol-4-yl)-phenyl]-1-phenyl-ethylamine] | < 15000 | < 5000 | – |
| CCOC(=O)c1ccc2[nH]c3c(OC)c4[nH]c5ccc(C(=O)OCC)cc5c4cc3c2c1 [SR-13668] | – | – | adverse effects in mice [8]: no adverse effects |
| CCNCC(c1ccc(Cl)cc1)c1ccc(-c2cn[nH]c2)cc1 (stereo not shown) [Example 43, {2-(4-Chloro-phenyl)-2-[4-(1H-pyrazol-4-yl)-phenyl]-ethyl}-ethyl-amine] | < 1000 | < 1000 | – |
| CCCCCCCCCCCCCCCCCCOP(=O)([O-])OC1CC[N+](C)(C)CC1 [KRX-0401, Perifosine] | – | – | half-life [9]: ~100 h |
| C/C1=C/C[C@@H](/C(C)=C/c2csc(C)n2)OC(=O)C[C@H](O)C(C)(C)C(=O)[C@H](C)[C@@H](O)[C@@H](C)CCC1 [desoxyepothilone B] | – | – | IC50 [10]: 17 nM |
| NCC(Cc1ccccc1)c1ccc(-c2cn[nH]c2)cc1 (stereo not shown) [Example 7, 3-Phenyl-2-[4-(1H-pyrazol-4-yl)-phenyl]-propylamine] | < 15000 | < 5000 | – |
